Test system: MV-4-11 cells
Test: Gene expression microarray analysis (Affymetrix PrimeView) and GSEA
Assay type: cell-based, human
Parameters: RFU PODN (11730768_x_at) / Fold change /veh PODN (11730768_x_at) / RFU LINC00158 (11744669_a_at) / Fold change /veh LINC00158 (11744669_a_at) / RFU DUSP10 (11751237_a_at) / Fold change /veh DUSP10 (11751237_a_at) / RFU ID3 (11757404_x_at) / Fold change /veh ID3 (11757404_x_at) / RFU PLEKHG5 (11737974_s_at) / Fold change /veh PLEKHG5 (11737974_s_at) / RFU LRRC4B (11730491_at) / Fold change /veh LRRC4B (11730491_at) / RFU GIMAP4 (11747438_a_at) / Fold change /veh GIMAP4 (11747438_a_at) / RFU KRT8 (11758183_x_at) / Fold change /veh KRT8 (11758183_x_at) / RFU CNN1 (11734310_a_at) / Fold change /veh CNN1 (11734310_a_at) / RFU VPS37D (11726825_at) / Fold change /veh VPS37D (11726825_at) / RFU C10orf10 (11716522_x_at) / Fold change /veh C10orf10 (11716522_x_at) / RFU KIR2DL2 /// KIR2DL4 /// KIR2DL5A /// KIR2DL5B /// KIR2DS1 /// KIR2DS2 /// KIR2DS3 /// KIR2DS4 /// KIR3DL3 /// KIR3DL3 /// KIR3DS1 (11738374_at) / Fold change /veh KIR2DL2 /// KIR2DL4 /// KIR2DL5A /// KIR2DL5B /// KIR2DS1 /// KIR2DS2 /// KIR2DS3 /// KIR2DS4 /// KIR3DL3 /// KIR3DL3 /// KIR3DS1 (11738374_at) / RFU C1QL1 (11718748_at) / Fold change /veh C1QL1 (11718748_at) / RFU TMPRSS4 (11747572_a_at) / Fold change /veh TMPRSS4 (11747572_a_at) / RFU HAMP (11756126_x_at) / Fold change /veh HAMP (11756126_x_at) / RFU RNFT2 (11725882_a_at) / Fold change /veh RNFT2 (11725882_a_at) / RFU NR4A2 (11747474_a_at) / Fold change /veh NR4A2 (11747474_a_at) / RFU ABCC12 (11746883_a_at) / Fold change /veh ABCC12 (11746883_a_at) / RFU TMEM136 (11760407_x_at) / Fold change /veh TMEM136 (11760407_x_at) / RFU CLDN22 /// WWC2 (11732394_at) / Fold change /veh CLDN22 /// WWC2 (11732394_at) / RFU HLA-DPB1 (11760878_x_at) / Fold change /veh HLA-DPB1 (11760878_x_at) / RFU SPINT1 (11716480_a_at) / Fold change /veh SPINT1 (11716480_a_at) / RFU GAP43 (11754022_s_at) / Fold change /veh GAP43 (11754022_s_at) / RFU A4GNT (11735810_at) / Fold change /veh A4GNT (11735810_at) / RFU PRB3 (11715151_x_at) / Fold change /veh PRB3 (11715151_x_at) / RFU TUBB4B (11761932_at) / Fold change /veh TUBB4B (11761932_at) / RFU CAPN14 (11732068_a_at) / Fold change /veh CAPN14 (11732068_a_at) / RFU TMCC2 (11721928_a_at) / Fold change /veh TMCC2 (11721928_a_at) / RFU IRGQ (11745062_a_at) / Fold change /veh IRGQ (11745062_a_at) / RFU FAM174B (11720279_a_at) / Fold change /veh FAM174B (11720279_a_at) / RFU TMPRSS4 (11748680_a_at) / Fold change /veh TMPRSS4 (11748680_a_at) / RFU FAM212B (11763350_a_at) / Fold change /veh FAM212B (11763350_a_at) / RFU PLEKHG5 (11743358_a_at) / Fold change /veh PLEKHG5 (11743358_a_at) / RFU ZSCAN30 (11745921_a_at) / Fold change /veh ZSCAN30 (11745921_a_at) / RFU CMKLR1 (11741424_a_at) / Fold change /veh CMKLR1 (11741424_a_at) / RFU LOC101060620 /// MAPK8IP1 (11723275_at) / Fold change /veh LOC101060620 /// MAPK8IP1 (11723275_at) / RFU SPTSSB (11747773_x_at) / Fold change /veh SPTSSB (11747773_x_at) / RFU PRSS12 (11739890_at) / Fold change /veh PRSS12 (11739890_at) / RFU BIN1 (11741810_x_at) / Fold change /veh BIN1 (11741810_x_at) / RFU WNT11 (11732464_a_at) / Fold change /veh WNT11 (11732464_a_at) / RFU C10orf10 (11716521_a_at) / Fold change /veh C10orf10 (11716521_a_at) / RFU C5orf56 (11738089_at) / Fold change /veh C5orf56 (11738089_at) / RFU CYB561 (11721691_x_at) / Fold change /veh CYB561 (11721691_x_at) / RFU ANKRD19P (11752326_a_at) / Fold change /veh ANKRD19P (11752326_a_at) / RFU OR2T12 /// OR2T33 /// OR2T8 (11738714_s_at) / Fold change /veh OR2T12 /// OR2T33 /// OR2T8 (11738714_s_at) / RFU VCAN (11748164_a_at) / Fold change /veh VCAN (11748164_a_at) / RFU JSRP1 (11732532_at) / Fold change /veh JSRP1 (11732532_at) / RFU KRTAP10-11 (11738290_x_at) / Fold change /veh KRTAP10-11 (11738290_x_at) / RFU MYO3A (11730013_a_at) / Fold change /veh MYO3A (11730013_a_at) / RFU EBF3 (11725865_a_at) / Fold change /veh EBF3 (11725865_a_at) / RFU CAMK2N1 (11719241_x_at) / Fold change /veh CAMK2N1 (11719241_x_at) / RFU C5orf56 (11738088_a_at) / Fold change /veh C5orf56 (11738088_a_at) / RFU OLFML3 (11715873_a_at) / Fold change /veh OLFML3 (11715873_a_at) / RFU LOC100653217 /// NTM (11731650_a_at) / Fold change /veh LOC100653217 /// NTM (11731650_a_at) / RFU MAPK11 (11762145_a_at) / Fold change /veh MAPK11 (11762145_a_at) / RFU FIZ1 (11724087_x_at) / Fold change /veh FIZ1 (11724087_x_at) / RFU OASL (11726364_x_at) / Fold change /veh OASL (11726364_x_at) / RFU SOX15 (11748057_x_at) / Fold change /veh SOX15 (11748057_x_at) / RFU CD79A (11719716_a_at) / Fold change /veh CD79A (11719716_a_at) / RFU HIST1H1D (11736915_at) / Fold change /veh HIST1H1D (11736915_at) / RFU CASKIN2 (11723855_a_at) / Fold change /veh CASKIN2 (11723855_a_at) / RFU LOC730098 (11760151_x_at) / Fold change /veh LOC730098 (11760151_x_at) / RFU OR4N2 (11742367_at) / Fold change /veh OR4N2 (11742367_at) / RFU PRRT2 (11749266_a_at) / Fold change /veh PRRT2 (11749266_a_at) / RFU SNX32 (11753110_a_at) / Fold change /veh SNX32 (11753110_a_at) / RFU CDHR5 (11726645_a_at) / Fold change /veh CDHR5 (11726645_a_at) / RFU RCAN1 (11760418_a_at) / Fold change /veh RCAN1 (11760418_a_at) / RFU FAM167A (11723789_a_at) / Fold change /veh FAM167A (11723789_a_at) / RFU FAM26E (11764081_at) / Fold change /veh FAM26E (11764081_at) / RFU ISYNA1 (11749810_s_at) / Fold change /veh ISYNA1 (11749810_s_at) / RFU ACY1 (11761880_at) / Fold change /veh ACY1 (11761880_at) / RFU 11764098_at / Fold change /veh 11764098_at / RFU SAMD14 (11745864_x_at) / Fold change /veh SAMD14 (11745864_x_at) / RFU NPB (11741838_a_at) / Fold change /veh NPB (11741838_a_at) / RFU TMPRSS6 (11731388_a_at) / Fold change /veh TMPRSS6 (11731388_a_at) / RFU KRTAP10-2 (11738614_at) / Fold change /veh KRTAP10-2 (11738614_at) / RFU ARHGAP8 /// PRR5-ARHGAP8 (11727945_x_at) / Fold change /veh ARHGAP8 /// PRR5-ARHGAP8 (11727945_x_at) / RFU KRTAP5-7 /// NADSYN1 (11734609_at) / Fold change /veh KRTAP5-7 /// NADSYN1 (11734609_at) / RFU RASL12 (11751679_a_at) / Fold change /veh RASL12 (11751679_a_at) / RFU CDKN2B (11736163_a_at) / Fold change /veh CDKN2B (11736163_a_at) / RFU PRF1 (11729649_at) / Fold change /veh PRF1 (11729649_at) / RFU, ZNF638 /// ZNF638-IT1 / Fold change vs veh, ZNF638 /// ZNF638-IT1 / RFU, PANK3 / Fold change vs veh, PANK3 / RFU, SH3YL1 / Fold change vs veh, SH3YL1 / RFU, ZEB2 / Fold change vs veh, ZEB2 / RFU, NRIP1 / Fold change vs veh, NRIP1 / RFU, PTTG1IP / Fold change vs veh, PTTG1IP / RFU, CAPN2 / Fold change vs veh, CAPN2 / RFU, MED14 / Fold change vs veh, MED14 / RFU, SNORA58 / Fold change vs veh, SNORA58 / RFU, C1orf63 / Fold change vs veh, C1orf63 / RFU, LRRFIP1 / Fold change vs veh, LRRFIP1 / RFU, NDUFAF7 / Fold change vs veh, NDUFAF7 / RFU, SLC12A2 / Fold change vs veh, SLC12A2 / RFU, IBTK / Fold change vs veh, IBTK / RFU, ESF1 / Fold change vs veh, ESF1 / Fold change vs veh, TMEM50B / RFU, TAOK1 / Fold change vs veh, TAOK1 / RFU, ACBD3 / Fold change vs veh, ACBD3 / RFU, TMA16 / Fold change vs veh, TMA16 / RFU, RWDD3 / Fold change vs veh, RWDD3 / RFU, BCAT1 / Fold change vs veh, BCAT1 / RFU, EDEM3 / Fold change vs veh, EDEM3 / RFU, TMEM33 / Fold change vs veh, TMEM33 / RFU, WDR75 / Fold change vs veh, WDR75 / RFU, AHCTF1 / Fold change vs veh, AHCTF1 / RFU, TFRC / Fold change vs veh, TFRC / RFU, ZDHHC17 / Fold change vs veh, ZDHHC17 / RFU, NOM1 / Fold change vs veh, NOM1 / RFU, ARL8B / Fold change vs veh, ARL8B / RFU, ZBTB11 / Fold change vs veh, ZBTB11 / RFU, TAMM41 / Fold change vs veh, TAMM41 / RFU, KIAA1704 /// LOC100996395 / Fold change vs veh, KIAA1704 /// LOC100996395 / RFU, ING1 / Fold change vs veh, ING1 / RFU, TRMT61B / Fold change vs veh, TRMT61B / RFU, FUBP3 / Fold change vs veh, FUBP3 / RFU, TP53 / Fold change vs veh, TP53 / RFU, TNKS2 / Fold change vs veh, TNKS2 / RFU, ZFP14 / Fold change vs veh, ZFP14 / RFU, ACTR2 / Fold change vs veh, ACTR2 / RFU, PPP3R1 / Fold change vs veh, PPP3R1 / RFU, PIK3R1 / Fold change vs veh, PIK3R1 / RFU, HNRNPA1 / Fold change vs veh, HNRNPA1 / RFU, RNF170 / Fold change vs veh, RNF170 / RFU, ZNF28 / Fold change vs veh, ZNF28 / RFU, RNGTT / Fold change vs veh, RNGTT / RFU, OGT / Fold change vs veh, OGT / RFU, BRD1 / Fold change vs veh, BRD1 / RFU, MARS / Fold change vs veh, MARS / RFU, ZNF655 / Fold change vs veh, ZNF655 / RFU, FAHD1 / Fold change vs veh, FAHD1 / RFU, BDP1 / Fold change vs veh, BDP1 / RFU, LRRCC1 / Fold change vs veh, LRRCC1 / RFU, ARID1A / Fold change vs veh, ARID1A / RFU, ZNF146 / Fold change vs veh, ZNF146 / RFU, ZNF330 / Fold change vs veh, ZNF330 / RFU, GPN3 / Fold change vs veh, GPN3 / RFU, C9orf123 / Fold change vs veh, C9orf123 / RFU, N4BP2L2 / Fold change vs veh, N4BP2L2 / RFU, ARFIP1 / Fold change vs veh, ARFIP1 / RFU, FAM179B / Fold change vs veh, FAM179B / RFU, BCL10 / Fold change vs veh, BCL10 / RFU, UHRF1BP1L / Fold change vs veh, UHRF1BP1L / RFU, BET1 / Fold change vs veh, BET1 / RFU, CNOT2 / Fold change vs veh, CNOT2 / RFU, ZNF268 / Fold change vs veh, ZNF268 / Fold change vs veh, ZNF507 / RFU, DGCR2 / Fold change vs veh, DGCR2 / RFU, WDSUB1 / Fold change vs veh, WDSUB1 / Fold change vs veh, HSP90B1 /// MIR3652 / RFU, ADSS / Fold change vs veh, ADSS / RFU, GK / Fold change vs veh, GK / RFU, ZNF148 / Fold change vs veh, ZNF148 / RFU, TAF9 / Fold change vs veh, TAF9 / RFU, SLC1A5 / Fold change vs veh, SLC1A5 / RFU, SLMO2 / Fold change vs veh, SLMO2 / RFU, ABCC4 / Fold change vs veh, ABCC4 / RFU, LOC101060439 /// RAP1B / Fold change vs veh, LOC101060439 /// RAP1B / RFU, RFX7 / Fold change vs veh, RFX7 / RFU, GTPBP10 / Fold change vs veh, GTPBP10 / RFU, CNEP1R1 / Fold change vs veh, CNEP1R1 / RFU, BIVM-ERCC5 /// ERCC5 / Fold change vs veh, BIVM-ERCC5 /// ERCC5 / RFU, ILF3 / Fold change vs veh, ILF3 / RFU 11762660_at / Fold change /veh 11762660_at / RFU VCAN (11757783_s_at) / Fold change /veh VCAN (11757783_s_at) / RFU DDX43 (11728927_at) / Fold change /veh DDX43 (11728927_at) / RFU KRT8 (11758188_x_at) / Fold change /veh KRT8 (11758188_x_at) / RFU NKD1 (11759106_at) / Fold change /veh NKD1 (11759106_at) / RFU SRD5A1 (11742802_a_at) / Fold change /veh SRD5A1 (11742802_a_at) / RFU TPSAB1 /// TPSB2 (11721975_s_at) / Fold change /veh TPSAB1 /// TPSB2 (11721975_s_at) / RFU GSTM3 (11746129_a_at) / Fold change /veh GSTM3 (11746129_a_at) / RFU IL23R (11737362_x_at) / Fold change /veh IL23R (11737362_x_at) / RFU TMEM51 (11727254_a_at) / Fold change /veh TMEM51 (11727254_a_at) / RFU PIWIL2 (11732686_x_at) / Fold change /veh PIWIL2 (11732686_x_at) / RFU ORM1 (11744905_x_at) / Fold change /veh ORM1 (11744905_x_at) / RFU CCDC152 (11743942_at) / Fold change /veh CCDC152 (11743942_at) / RFU ECM1 (11717891_a_at) / Fold change /veh ECM1 (11717891_a_at) / RFU IL23R (11748794_a_at) / Fold change /veh IL23R (11748794_a_at) / RFU TNFAIP8L3 (11732012_x_at) / Fold change /veh TNFAIP8L3 (11732012_x_at) / RFU MBOAT4 (11741988_at) / Fold change /veh MBOAT4 (11741988_at) / RFU 11764193_at / Fold change /veh 11764193_at / RFU TMEM53 (11763286_at) / Fold change /veh TMEM53 (11763286_at) / RFU MAGEB2 (11727129_at) / Fold change /veh MAGEB2 (11727129_at) / RFU TMEM200A (11744735_a_at) / Fold change /veh TMEM200A (11744735_a_at) / RFU CCDC152 (11751479_a_at) / Fold change /veh CCDC152 (11751479_a_at) / RFU FAM211A (11726209_a_at) / Fold change /veh FAM211A (11726209_a_at) / RFU RGS16 (11746705_a_at) / Fold change /veh RGS16 (11746705_a_at) / RFU VCAN (11755009_s_at) / Fold change /veh VCAN (11755009_s_at) / RFU RHOB (11743442_s_at) / Fold change /veh RHOB (11743442_s_at) / RFU RGS16 (11720943_a_at) / Fold change /veh RGS16 (11720943_a_at) / RFU RGS16 (11720944_at) / Fold change /veh RGS16 (11720944_at) / RFU, VPS4B / Fold change vs veh, VPS4B / RFU, CREB1 / Fold change vs veh, CREB1 / RFU, DNAJC13 / Fold change vs veh, DNAJC13 / RFU, GNAQ / Fold change vs veh, GNAQ / RFU, CDK5R1 / Fold change vs veh, CDK5R1 / RFU, ZRANB3 / Fold change vs veh, ZRANB3 / RFU, CUL4A / Fold change vs veh, CUL4A / RFU, CCNY / Fold change vs veh, CCNY / RFU, UFL1 / Fold change vs veh, UFL1 / RFU, COG3 / Fold change vs veh, COG3 / RFU, DIAPH2 / Fold change vs veh, DIAPH2 / RFU, SKA2 / Fold change vs veh, SKA2 / RFU, AFF3 / Fold change vs veh, AFF3 / RFU, LMF1 / Fold change vs veh, LMF1 / RFU, IPO11 / Fold change vs veh, IPO11 / RFU, DFFB / Fold change vs veh, DFFB / RFU, FOXP1 / Fold change vs veh, FOXP1 / RFU, CARD8 / Fold change vs veh, CARD8 / RFU, STRN3 / Fold change vs veh, STRN3 / RFU, ADK / Fold change vs veh, ADK / RFU, RASSF2 / Fold change vs veh, RASSF2 / RFU, WIPF1 / Fold change vs veh, WIPF1 / RFU, LARP1B / Fold change vs veh, LARP1B / RFU, RASA1 / Fold change vs veh, RASA1 / RFU, RB1 / Fold change vs veh, RB1 / RFU, PPFIA1 / Fold change vs veh, PPFIA1 / RFU, MAT2A / Fold change vs veh, MAT2A / RFU, CCT5 / Fold change vs veh, CCT5 / RFU, WDR92 / Fold change vs veh, WDR92 / RFU, CUX1 / Fold change vs veh, CUX1 / RFU, TTC7A / Fold change vs veh, TTC7A / RFU, TMEM135 / Fold change vs veh, TMEM135 / RFU, DEPTOR / Fold change vs veh, DEPTOR / RFU, CPM / Fold change vs veh, CPM / RFU, DNAJB6 / Fold change vs veh, DNAJB6 / RFU, CACNA2D3 / Fold change vs veh, CACNA2D3 / RFU, DTX4 / Fold change vs veh, DTX4 / RFU, TFCP2 / Fold change vs veh, TFCP2 / RFU, GMCL1 /// GMCL1P1 / Fold change vs veh, GMCL1 /// GMCL1P1 / RFU, AEBP2 / Fold change vs veh, AEBP2 / RFU, SNHG1 /// SNORD22 /// SNORD25 /// SNORD26 /// SNORD27 /// SNORD28 /// SNORD29 /// SNORD31 / Fold change vs veh, SNHG1 /// SNORD22 /// SNORD25 /// SNORD26 /// SNORD27 /// SNORD28 /// SNORD29 /// SNORD31 / Fold change (Aza/veh), C12orf56 (ProbeSet 11735607_a_at) / Fold change (ACY-1035/veh), C12orf56 (ProbeSet 11735607_a_at) / Fold change (Aza/veh), FGFR1OP (ProbeSet 11751329_s_at) / Fold change (ACY-1035/veh), FGFR1OP (ProbeSet 11751329_s_at) / Fold change (Aza/veh), VPS36 (ProbeSet 11739960_a_at) / Fold change (ACY-1035/veh), VPS36 (ProbeSet 11739960_a_at) / RFU SYPL1 (11715823_x_at) / Fold change /veh SYPL1 (11715823_x_at) / RFU IGFBP7 (11715501_s_at) / Fold change /veh IGFBP7 (11715501_s_at) / RFU REEP3 (11722064_at) / Fold change /veh REEP3 (11722064_at) / RFU IGLL1 (11728026_x_at) / Fold change /veh IGLL1 (11728026_x_at): dose or concentration left out as unconfirmed
Details: MV-4-11 cells, 48 hours

In the case of `Nc1ccc(-c2cccs2)cc1NC(=O)c1ccc2c(c1)cc(C1CC1)n2CCN1CCOCC1` [ACY-1035], the “Fold change /veh VPS37D (11726825_at)” value is reported as 1.08.

— article PMC5218480 (PLoS ONE, 2017)
